Data on one compound can be found in patent US6740651B2, “Aminoquinazolines which inhibit signal transduction mediated by tyrosine kinases” (Boehringer Ingelheim Pharma KG, priority 2000, dated 2004).

Structures are written as SMILES.

For the assay, the target named is T1, human EGF-R (Homo sapiens, UniProt P00533).
T1 construct: expressed in transfected cells; host or cells: F/L-HERc cells (murine IL-3-dependent FDC-P1 line transduced with LXSN retroviral vector carrying human EGF-R cDNA; packaging line GP+E86)
T1 sequence (P00533 25-1210): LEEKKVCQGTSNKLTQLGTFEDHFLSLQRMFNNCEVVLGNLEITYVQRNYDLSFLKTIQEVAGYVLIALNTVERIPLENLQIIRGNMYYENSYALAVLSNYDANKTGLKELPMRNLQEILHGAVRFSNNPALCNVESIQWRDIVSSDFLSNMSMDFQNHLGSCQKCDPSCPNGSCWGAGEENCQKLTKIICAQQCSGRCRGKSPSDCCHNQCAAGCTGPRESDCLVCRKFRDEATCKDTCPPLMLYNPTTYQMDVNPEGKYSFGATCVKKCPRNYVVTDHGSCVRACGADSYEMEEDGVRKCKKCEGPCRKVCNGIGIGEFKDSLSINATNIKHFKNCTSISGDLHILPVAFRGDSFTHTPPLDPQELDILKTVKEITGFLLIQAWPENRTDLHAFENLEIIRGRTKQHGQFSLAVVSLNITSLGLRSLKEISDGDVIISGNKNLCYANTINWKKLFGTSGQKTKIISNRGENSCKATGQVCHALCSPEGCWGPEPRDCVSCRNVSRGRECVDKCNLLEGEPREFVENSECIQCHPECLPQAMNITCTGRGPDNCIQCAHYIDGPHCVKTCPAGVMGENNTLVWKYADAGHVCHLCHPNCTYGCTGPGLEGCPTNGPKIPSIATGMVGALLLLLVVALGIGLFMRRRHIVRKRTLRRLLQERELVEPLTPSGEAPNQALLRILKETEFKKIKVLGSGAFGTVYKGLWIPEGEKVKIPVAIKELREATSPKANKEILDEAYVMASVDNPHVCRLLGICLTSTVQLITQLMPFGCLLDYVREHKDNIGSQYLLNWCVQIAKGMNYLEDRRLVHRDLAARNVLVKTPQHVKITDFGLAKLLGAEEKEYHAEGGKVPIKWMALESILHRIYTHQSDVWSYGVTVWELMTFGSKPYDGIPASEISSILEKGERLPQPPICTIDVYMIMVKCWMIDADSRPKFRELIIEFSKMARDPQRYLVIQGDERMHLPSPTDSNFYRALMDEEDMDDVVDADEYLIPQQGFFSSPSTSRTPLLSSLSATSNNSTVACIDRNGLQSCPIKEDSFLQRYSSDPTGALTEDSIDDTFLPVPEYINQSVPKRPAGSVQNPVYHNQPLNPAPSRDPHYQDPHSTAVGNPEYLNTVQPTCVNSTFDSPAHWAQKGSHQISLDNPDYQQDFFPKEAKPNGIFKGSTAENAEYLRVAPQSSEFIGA
Nature of the assay: Inhibition of the EGF-dependent proliferation of F/L-HERc cells (Cell Titer 96 proliferation assay). Type of assay: cell-based. To be noted: F/L-HERc cells (murine IL-3-dependent line expressing human EGF-R), stimulated with EGF 20 ng/ml, 48 hours at 37° C. An excerpt: A cell line of murine origin dependent on interleukin-3-(IL-3) which was genetically modified to express functional human EGF-R was used here. The proliferation of these cells known as F/L-HERc can therefore be stimulated either by murine IL-3 or by EGF (cf. von Rüden, T. et al. in EMBO J. 7, 2749-2756 (1988) and Pierce, J. H. et al. in Science 239, 628-631 (1988)).
The starting material used for the F/L-HERc cells was the cell line FDC-P1, the production of which has been described by Dexter, T. M. et al. in J. Exp. Med. 152, 1036-1047 (1980). Alternatively, however, other growth-factor-dependent cells may also be used (cf. for example Pierce, J. H. et al. in Science 239, 628-631 (1988), Shibuya, H. et al. in Cell 70, 57-67 (1992) and Alexander, W. S. et al. in EMBO J. 10, 3683-3691 (1991)). […]
In order to determine the inhibitory activity of the compounds according to the invention the relative cell number was measured in O.D. units using the Cell Titer 96™ Aqueous Non-Radioactive Cell Proliferation Assay (Promega). […]

By IC50 is commonly meant the point on the concentration scale where inhibition reaches its midpoint. A high value points to a need for much substance. In turn, `COC[C@H]1CN(CC=CC(=O)Nc2cc3c(Nc4ccc(F)c(Cl)c4)ncnc3cc2OCC2CC2)CC(=O)O1` [Example 1, 4-[(3-chloro-4-fluoro-phenyl)amino]-6-{[4-((R)-2-methoxymethyl-6-oxo-morpholin-4-yl)-1-oxo-2-buten-1-yl]amino}-7-cyclopropylmethoxy-quinazoline] came in with an IC50 of 2 nM.
